Results taken from PubChem BioAssay AID588628 (NMMLSC, 2011).
Values joined by “and” are separate entries in the source; they are usually repeats but may differ in a detail not shown here. Identical values can stand only once. Active and inactive are the calls of the source.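 How the source made its calls: active means fitted EC50 of 10 µM or less with% response changing by at least 30 points across doses; inactive means the rest.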

These compounds were tested against GTPase HRas (Homo sapiens) (UniProt P01112) (assay: activated H-Ras mutant GTP-binding inhibitors, SAR follow-up, biochemical, multiplex bead flow cytometry, round 2 (AID 588628)). Conditions: bead-based flow cytometry, Bodipy-FL-GTP binding, EDTA.
GTPase HRas (Homo sapiens), sequence (P01112 whole entry, looked up): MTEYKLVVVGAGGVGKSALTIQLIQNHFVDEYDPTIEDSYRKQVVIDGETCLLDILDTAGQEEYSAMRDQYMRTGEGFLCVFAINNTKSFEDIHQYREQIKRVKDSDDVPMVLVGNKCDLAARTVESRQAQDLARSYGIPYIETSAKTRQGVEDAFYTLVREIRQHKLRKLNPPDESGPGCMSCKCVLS

| Structure (SMILES) | EC50 |
| --- | --- |
| O=C(NC(=S)Nc1sc2c(c1C(=O)O)CC1(CCCC1)OC2)c1ccccc1 | 33 nM |
| CC1(C)Cc2c(sc(NC(=S)NC(=O)c3ccco3)c2C(=O)O)CO1 | 65 nM |
| CC1(C)Cc2c(sc(NC(=S)NC(=O)c3ccccc3Br)c2C(=O)O)CO1 | 1210 nM |
| CC1(C)Cc2c(sc(NC(=S)NC(=O)c3ccc(Br)cc3)c2C(=O)O)CO1 | 564 nM |
| COc1cccc(C(=O)NC(=S)Nc2sc3c(c2C(=O)O)CC(C)(C)OC3)c1 | 205 nM |
| CCC1(C)Cc2c(sc(NC(=S)NC(=O)c3ccccc3)c2C(=O)O)CO1 (centres undefined) | 35 nM |
| CC1(C)Cc2c(sc(NC(=O)NC(=O)c3ccccc3)c2C(=O)O)CO1 | 824 nM |
| O=C(NC(=S)Nc1sc2c(c1C(=O)O)CCOC2)c1ccccc1 | 85 nM and 207 nM |
| CC1(C)Cc2c(sc(NC(=S)NC(=O)c3cccc(F)c3)c2C(=O)O)CO1 | 535 nM |
| CC1(C)Cc2c(sc(NC(=S)NC(=O)c3ccc(F)cc3)c2C(=O)O)CO1 | 91 nM |
| CC1(C)Cc2c(sc(NC(=S)NC(=O)c3ccccc3F)c2C(=O)O)CO1 | 283 nM |
| Cc1ccc(C(=O)NC(=S)Nc2sc3c(c2C(=O)O)CC(C)(C)OC3)cc1 | 178 nM |
| CC1Cc2c(sc(NC(=S)NC(=O)c3ccccc3)c2C(=O)O)CO1 (centres undefined) | 217 nM |
| Cc1ccccc1C(=O)NC(=S)Nc1sc2c(c1C(=O)O)CC(C)(C)OC2 | 379 nM |
| CC1(C)Cc2c(sc(NC(=S)NC(=O)c3cccs3)c2C(=O)O)CO1 | 24 nM |
| CC(C)(C)C1Cc2c(sc(NC(=S)NC(=O)c3ccccc3)c2C(=O)O)CO1 (centres undefined) | 125 nM |
| CC1(C)CCc2sc(NC(=S)NC(=O)c3ccccc3)c(C(=O)O)c2C1 | 53 nM |
| COc1ccc(C(=O)NC(=S)Nc2sc3c(c2C(=O)O)CC(C)(C)OC3)cc1 | 276 nM |
| Cc1cccc(C(=O)NC(=S)Nc2sc3c(c2C(=O)O)CC(C)(C)OC3)c1 | 854 nM |
| CC1(C)Cc2c(sc(NC(=S)NC(=O)c3ccccc3)c2C(=O)O)CO1 | 21 nM |
| CC1(C)Cc2c(sc(NC(=S)NC(=O)C3CCCCC3)c2C(=O)O)CO1 | 585 nM |

Same assay, conditions: bead-based flow cytometry, Bodipy-FL-GTP binding, EDTA; at 100 µM (top of the series)

| Structure (SMILES) | % response (binding remaining) |
| --- | --- |
| CC1(C)Cc2c(sc(NC(=S)Nc3ccccc3)c2C(=O)O)CO1 | inactive |
| CC1(C)Cc2c(sc(NC(=S)NC(=O)c3cccc(Br)c3)c2C(=O)O)CO1 | inactive |
| COc1ccccc1C(=O)NC(=S)Nc1sc2c(c1C(=O)O)CC(C)(C)OC2 | inactive |
